Measurements from patent US8617614B2, “Sustained release preparation for tissue regeneration therapy” (Ono Pharmaceutical Co., Ltd., priority 2006, dated 2013).

What was measured:
EGF = EGF production promoting effect, angiogenesis kit culture, ELISA; type: cell-based, human; details: 100 nmol/L
Experimental: An angiogenesis kit (Kurabo Industries Ltd.) composed of normal human umbilical vein endothelial cells and normal human skin fibroblasts was procured and used.
Using a carbon dioxide incubator (BNA-121D) and using Angiogenesis Culture 2 provided with the angiogenesis kit as the liquid culture, culturing was carried out in a wet environment at 37° C. with 5% carbon dioxide/95% air.
Immediately after the kit arrived, the cells were cultured for 3 hours, following which the liquid culture was replaced and culturing was continued. Three days after the start of culturing, the liquid culture was again replaced. Six days after the start of culturing, treatment with the present drug was carried out by replacing the liquid culture. The treatment concentration was set to 100 nmol/L in each case. DMSO treatment was carried out as a negative control. Six, 24, 48 and 72 hours after treatment with the present drug, the culture supernatant was collected and furnished for measurement of the growth factors. The measured growth factors were EGF and SDF-1.
The culture supernatant was measured with the following ELISA kits.
Human EGF Immunoassay (R&D Systems Inc., DEG00)

[1] = test system: STZ induced diabetes model; test: Oral glucose tolerance test (OGTT), insulin, STZ induced diabetes model; type: in vivo; details: OGTT 2 g/kg, week 13; STZ rat; Test Group 3: 3 mg/kg oral twice daily
Experimental: Female Sprague-Dawley rats (8- to 11-week-old; Japan SLC, Inc.) were intraperitoneally administered 40 mg/kg of a citrate buffer (pH, approx. 4.5) of streptozotocin (STZ; Sigma). A normal control group was intraperitoneally given only the citrate buffer. Administration was carried out in accordance with the intended route of administration for clinical use. In Test Group 3, forced administration was carried out orally using a disposable syringe barrel and a rat stomach probe. In Test Group 4, intramuscular administration was carried out uniformly at four places within the muscle along the sciatic nerve in the femoral portion of the left leg. For subcutaneous administration in test Group 5, the animals were ether anesthetized, and subcutaneous administration was carried out in the dorsal region using a disposable syringe barrel and a disposable 25 G syringe needle. The volume of solution administered was computed based on the latest body weight. Thirteen weeks after the start of test substance administration, an oral glucose tolerance test (OGTT) was conducted on rats fasted for 18 hours. After drawing blood from the caudal vein of the fasting rats, 2 g/kg of glucose was orally force-fed. About 500 μL of blood was similarly collected from the caudal vein 30, 60 and 120 minutes after glucose administration, of which about 400 μL was EDTA-2Na treated, then centrifuged (3,000 rpm, 4° C., 10 min) with a centrifuge. The plasma was thereby collected, and the blood sugar was measured using a 7170 Clinical Analyzer (Hitachi, Ltd.). The remaining approximately 100 μL of blood was centrifuged (3,000 rpm, 4° C., 10 min) with a centrifuge, the serum was collected, and the insulin level was measured (ELISA method; Levis Insulin Kit (Shibayagi Co., Ltd)).

[2] = Influence on body weight, STZ induced diabetes model; type: in vivo; details: STZ rat, Test Group 3: 3 mg/kg oral twice daily
Experimental: Female Sprague-Dawley rats (8- to 11-week-old; Japan SLC, Inc.) were intraperitoneally administered 40 mg/kg of a citrate buffer (pH, approx. 4.5) of streptozotocin (STZ; Sigma). A normal control group was intraperitoneally given only the citrate buffer.
Administration was carried out in accordance with the intended route of administration for clinical use. In Test Group 3, forced administration was carried out orally using a disposable syringe barrel and a rat stomach probe. In Test Group 4, intramuscular administration was carried out uniformly at four places within the muscle along the sciatic nerve in the femoral portion of the left leg. For subcutaneous administration in test Group 5, the animals were ether anesthetized, and subcutaneous administration was carried out in the dorsal region using a disposable syringe barrel and a disposable 25 G syringe needle. The volume of solution administered was computed based on the latest body weight.
The rat body weights were measured before test substance administration and 14 weeks after the start of test substance administration.

[3] = test system: STZ induced diabetes model; test: Time course of blood sugar level, STZ induced diabetes model; type: in vivo; details: STZ rat, Test Group 3: 3 mg/kg oral twice daily
Experimental: Female Sprague-Dawley rats (8- to 11-week-old; Japan SLC, Inc.) were intraperitoneally administered 40 mg/kg of a citrate buffer (pH, approx. 4.5) of streptozotocin (STZ; Sigma). A normal control group was intraperitoneally given only the citrate buffer. Two weeks after STZ administration, the blood sugar, nerve conduction velocity and body weight were measured, the animals were divided into groups uniform for these properties, and administration of the test substance was begun. To determine the change over time in blood sugar, the blood sugar level was measured 4, 8 and 12 weeks following the start of test solution administration (on the day prior to nerve conduction velocity measurement). The blood sugar level of blood drawn from the caudal vein was measured using a blood sugar analyzer (Antisense II; Bayer-Sankyo). Following measurement of the blood sugar 12 weeks later, the animals were deprived of food for at least 16 hours and the fasting blood sugar and insulin were measured. In addition, a 2 g glucose tolerance test was carried out in which blood was similarly drawn 30, 60 and 120 minutes after sugar loading, and the blood sugar and insulin values were measured. In Groups 2 to 5, the feeding blood sugar level two weeks after STZ administration was measured. Of rats with blood sugar levels above 300 mg/dL, severely diabetic rats were excluded therefrom, and the remaining rats were used as diabetes model animals. Groups were formed in such a way as to make the respective groups uniform with respect to nerve conduction velocity, blood sugar level and body weight. Administration was carried out in accordance with the intended route of administration for clinical use. In Test Group 3, forced administration was carried out orally using a disposable syringe barrel and a rat stomach probe. In Test Group 4, intramuscular administration was carried out uniformly at four places within the muscle along the sciatic nerve in the femoral portion of the left leg. For subcutaneous administration in test Group 5, the animals were ether anesthetized, and subcutaneous administration was carried out in the dorsal region using a disposable syringe barrel and a disposable 25 G syringe needle. The volume of solution administered was computed based on the latest body weight. The amount of microspheres administered indicates the amount of the present drug included.

## O=C(O)COc1cccc2c1CCC=C2CCO/N=C(\c1ccccc1)c1cccnc1 [present drug, ({5-[2-({[(1E)-phenyl(pyridin-3-yl)methylene]amino}oxy)ethyl]-7,8-dihydronaphthalen-1-yl}oxy)acetic acid]
EGF; 72 hours after treatment
  EGF relative to the solvent control group: significantly increased
EGF; culture supernatant 72 hours after treatment
  EGF, Drug group: 4995 ± 442 pg/mL
[1]
  Insulin (ng/mL) After 30 minutes: 2.197 ± 2.062 ng/mL
  Insulin (ng/mL) After 60 minutes: 1.808 ± 1.521 ng/mL
  Insulin (ng/mL) After 120 minutes: 2.130 ± 2.087 ng/mL
  Insulin (ng/mL) Before glucose loading: 2.138 ± 1.722 ng/mL
[2]
  Body weight (g) 0 weeks: 219.1 ± 12.2 g
[2]; week 14
  body weight relative to Test Group 2: significant weight decreased
[3]
  Blood sugar (mg/dL) 0 weeks: 567 ± 73 mg/dL
  Blood sugar (mg/dL) 4 weeks: 555 ± 39 mg/dL
  Blood sugar (mg/dL) 8 weeks: 600 ± 64 mg/dL
  Blood sugar (mg/dL) 12 weeks: 510 ± 84 mg/dL
[3]; at any of the times
  blood sugar relative to Test Group 2: A significant decline in blood sugar was not observed
